In patent EP0220873B1, “Fused bicyclic imides with psychotropic activity” (priority 1985, dated 1987):
pKi: −log10 of the molar value. Structures can show the parent of a compound that is named as a salt. Where two headings read alike, the source gives them in different places. Marks after values point to notes of the source that are not given here.

Key:
avoidance responding [1] = experiment: conditioned avoidance (shelf-jump response) test; type: in vivo, Male CD rats; details: i.p., active dose
Method: Another test designed to determine the potential antipsychotic activity of the compounds of the invention is the conditioned avoidance (shelf-jump response) test.
This test is carried out as follows: Male CD rats (Charles River) maintained at approximately 400-450 gm body weight are used. Previously trained rats are placed in plexiglass experimental chambers divided into two sections; a main chamber (10 1/2" x 6 3/4" x 11 7/8" high) and an elevated chamber or shelf (5 7/8" x 6 7/8" x 5 3/4"). A moveable wall, controlled by a motor, determines whether the rat has access to the shelf at any time during the experiment. The experimental chamber also contains a house light and sonalert. A steel grid floor in the main chamber is wired for presentation of electric shock. Each trial consists of a fifteen-second warning tone (conditioned stimulus), continuing for an additional fifteen seconds accompanied by electric shock, (unconditioned stimulus). A response (jumping onto the exposed shelf of the upper chamber) occurring during the initial fifteen-second warning tone is considered an avoidance response, while a response occurring during shock delivery is considered an escape response. Trials are presented on a fixed interval schedule of one minute. The session consists of thirty-six trials. Animals are run twice weekly with control sessions always preceding a drug run, and with at least one day intervening. Compounds are administered i.p. or p.o. at appropriate pre-treatment times to a minimum of five rats at each dose level over a range of doses.
The following experimental parameters are recorded by computer: (1) the number of avoidance responses, (2) the number of escape responses, and (3) the number of trials in which no response occurred.
(§1) Response counts are summed over all subjects at a given dose. […] This number is expressed as a percentage of the total trials. Control performance is arbitrarily assigned a value of 100% for avoidance and the dose calculated to produce a 50% block in avoidance responding (AB₅₀) is obtained from a dose-effect regression line fitted by the method of least squares. Potential antipsychotic compounds suppress avoidance responding and increase escape responding.

[2] = target: T1, 5-HT-1A serotonin receptor (Rattus norvegicus, UniProt P19327); experiment: ex vivo inhibition of 5-HT-1A serotonin receptor binding (3H-8-OH-DPAT, hippocampal membranes); set-up: species or system rats
T1 construct: Hippocampal tissue is dissected and homogenized on ice; from tissue; host or cells: rat hippocampal membrane homogenate
T1 sequence (P19327 1-422): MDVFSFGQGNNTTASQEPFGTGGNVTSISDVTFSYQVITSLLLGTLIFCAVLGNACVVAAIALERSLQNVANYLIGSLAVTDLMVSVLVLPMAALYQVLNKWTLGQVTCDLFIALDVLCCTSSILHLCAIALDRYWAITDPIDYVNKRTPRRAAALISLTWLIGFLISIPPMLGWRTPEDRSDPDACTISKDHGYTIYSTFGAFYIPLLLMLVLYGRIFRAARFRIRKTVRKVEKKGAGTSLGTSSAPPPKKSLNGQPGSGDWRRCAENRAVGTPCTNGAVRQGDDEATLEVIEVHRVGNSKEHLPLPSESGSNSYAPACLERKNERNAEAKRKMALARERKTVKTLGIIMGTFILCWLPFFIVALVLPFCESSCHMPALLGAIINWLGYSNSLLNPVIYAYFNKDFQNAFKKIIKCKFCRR
Method: The assay is carried out as follows: Several groups of rats (4 - 6 rats/group) are injected with test compound or the appropriate vehicle. Thirty minutes later, unless otherwise noted, rats are decapitated and their brains removed. Various brain regions are dissected and rapidly frozen and maintained at -70°C until used.
Hippocampal tissue is dissected and homogenized on ice in 40 vols of buffer (50 mM Tris HCl, pH = 7.7) using a Polytron homogenizer at setting 5 for 3 x 15 sec bursts. The homogenate is then centrifuged at 20,000 rpm (RC5-B; 50,000 g) and the supernatant discarded. The pellet is resuspended in 40 vols of the same buffer and incubated at 37°C for 10 minutes to aid in the removal of endogenous serotonin. The homogenate is then centrifuged (as above) and the supernatant discarded. The pellet is then resuspended in 100 vols of buffer B (50 mM Tris HCl, pH = 7.7 containing 0.1% ascorbate, 10 µM pargyline and 4 mM CaCl₂) and sonicated. An aliquot is taken for protein determination by the Lowry method and the remainder stored frozen at -70°C until used.
The homogenate (50 µl; 0.4-0.6 mg protein/sample) is incubated with 100 µl (1.5-1.8 nM) ³H-8-hydroxy-2-(di-n-propylamino)tetraline in a final volume of 2 ml of buffer for 10 minutes at 37°C. At the end of the incubation, 3 ml of cold buffer A are added to each tube, and the contents rapidly filtered through Whatman GF/B glass filters. The filters are then rapidly washed 2 times with 3 ml of the same buffer, placed in scintillation vials, and shaken for 15 minutes with 10 ml of Hydrofluor (National Diagnostics)scintillation cocktail. The vials are then counted in a Packard 460 CD scintillation counter.
Specific binding is calculated for each of the treatment protocols and is defined as total binding less binding in the presence of excess unlabeled serotonin (1 µM). Specific binding obtained in vehicle-treated rats is compared to that obtained in animals receiving a single or various doses of test compound and expressed as percent of control. […] Linear regression analysis then yields a straight line with 95% confidence limits from which an IC₅₀ can be inversely predicted.

avoidance responding [3] = experiment: conditioned avoidance (discrete trial) test; type: in vivo, Male CD rats; details: Rattus norvegicus, po; footnote 1 = AB50 value; read-out: Active at mg/kg (AB50 value)
Method: The antipsychotic activity of the compounds of the invention is assessed via the conditioned avoidance (discrete trial) test. This test has excellent clinical correlation for antipsychotic activity.
The test is carried out as follows: Male CD rats (Charles River) maintained at approximately 400-450 gm body weight are used. Rats trained previously are placed in plexiglass experimental chambers equipped with a response lever, house light, and sonalert. A steel grid floor is wired for presentation of electric shock. Each trial consists of a fifteen-second warning tone (conditioned stimulus), continuing for an additional fifteen seconds accompanied by electric shock, (unconditioned stimulus). The rat can terminate a trial at any point by depression of the response lever. As response during the initial fifteen-second warning tone ends the trial before shock delivery and is considered avoidance response, while a response occurring during shock delivery is an escape response. Trials are presented on a variable interval schedule of two minutes. The session consists of sixty trials. Animals are run two to three times weekly with control sessions always preceding a drug run, and with at least one day intervening, compounds are administered i.p. or p.o. at appropriate pre-treatment times to a minimum of five to six rats at each dose level over a range of doses.
as §1

[4] = target: T2, limbic D-2 dopamine receptor (Rattus norvegicus, UniProt P61169); experiment: biochemical; type: binding, rats; details: for pKi: Table 1, 0.3 nM 3H-spiroperidol, rat limbic brain tissue, read-out: Limbic D-2 Binding (KinM); for inhibition at 1 µM: read-out: Limbic D-2 Binding, % inhibition at 1 µM
T2 construct: Limbic brain tissue (nucleus accumbens, septal area, olfactory tubercle) is dissected; from tissue; host or cells: rat limbic brain tissue (nucleus accumbens, septal area, olfactory tubercle) homogenate

[5] = Table 4, 3H-8-OH-DPAT, rat hippocampal tissue, read-out: Inhibition Constant (Ki nm)

T2 sequence (P61169 whole entry): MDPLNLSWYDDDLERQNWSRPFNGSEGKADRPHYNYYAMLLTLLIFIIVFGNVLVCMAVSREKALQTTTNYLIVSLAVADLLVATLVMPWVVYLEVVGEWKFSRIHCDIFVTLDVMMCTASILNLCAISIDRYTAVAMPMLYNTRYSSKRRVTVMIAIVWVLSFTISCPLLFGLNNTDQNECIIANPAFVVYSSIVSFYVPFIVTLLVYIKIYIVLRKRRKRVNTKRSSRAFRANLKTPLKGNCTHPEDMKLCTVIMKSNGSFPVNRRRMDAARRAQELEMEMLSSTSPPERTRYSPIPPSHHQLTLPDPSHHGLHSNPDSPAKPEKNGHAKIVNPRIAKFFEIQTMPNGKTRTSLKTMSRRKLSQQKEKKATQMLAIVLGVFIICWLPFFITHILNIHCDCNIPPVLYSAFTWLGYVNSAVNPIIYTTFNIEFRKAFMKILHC

O=C1C2C3C=CC(C4CC34)C2C(=O)N1CCCCN1CCN(c2cncc(Cl)n2)CC1 (centres unmarked) [Example 1, 2-[4-[4-(6-Chloro-2-pyrazinyl)-1-piperazinyl]butyl]hexahydro-4,6-ethenocycloprop[f]isoindole-1,3(2H,3aH)-dione, dihydrochloride, sesquihydrate]
Active at mg/kg (avoidance responding [1]): 40 (i.p.)* mg/kg | pKi [2, 5]: 6.79 | ED50 (avoidance responding [3]): 40 mg/kg | pKi [4]: 6.16

O=C1C2C3C=CC(C4C=CC43)C2C(=O)N1CCCCN1CCN(c2ncccn2)CC1 (centres unmarked) [Example 3, 3a,4,4a,6a,7,7a-Hexahydro-2-[4-[4-(2-pyrimidinyl)-1-piperazinyl]butyl]-4,7-etheno-1H-cyclobut[f]isoindole-1,3(2H)-dione, dihydrochloride, sesquihydrate]
Active at mg/kg (avoidance responding [1]): 40 (i.p.) mg/kg | pKi [2, 5]: 7.77 | ED50 (avoidance responding [3]): 13.4 mg/kg | pKi [4]: 6.46

O=C1C2C3CCC(C4CC43)C2C(=O)N1CCCCN1CCN(c2ncccn2)CC1 (centres unmarked) [Example 7, 2-[4-[4-(2-Pyrimidinyl)-1-piperazinyl]butyl]octahydro-4,6-ethanocycloprop[f]isoindole-1,3-(2H, 3aH)-dione, dihydrochloride, dihydrate]
Active at mg/kg (avoidance responding [1]): 40 (i.p.) mg/kg | pKi [2, 5]: 7.86 | pKi [4]: 6.85

O=C1C2C3C=CC(CCCC3)C2C(=O)N1CCCCN1CCN(c2cncc(Cl)n2)CC1 (centres unmarked) [Example 8, 2-[4-[4-(6-Chloro-2-pyrazinyl)-1-piperazinyl]butyl]octahydro-4,9-etheno-1H-cycloocta[c]pyrrole-1,3(2H)-dione, dihydrochloride, sesquihydrate]
Active at mg/kg (avoidance responding [1]): 40 (i.p.) mg/kg | pKi [2, 5]: 6.91 | pKi [4]: 6.46

O=C1C2C3C=CC(C3)C2C(=O)N1CCCCN1CCN(c2cncc(Cl)n2)CC1 (centres unmarked) [Example 13, 3a,4,7,7a,-Tetrahydro-2-[4-[4-(6-chloro-2-pyrazinyl)-1-piperazinyl]butyl]-4,7-methano-1H-isoindole-1,3(2H)-dione hydrochloride hydrate]
Active at mg/kg (avoidance responding [1]): 40 (i.p.) mg/kg | inhibition at 1 µM [2]: 74% | ED50 (avoidance responding [3]): 39.7 mg/kg | inhibition at 1 µM [4]: 1%

O=C1C2C3C=CC(C4CCC34)C2C(=O)N1CCCCN1CCN(c2ncccn2)CC1 (centres unmarked) [Example 16, 2-[4-[4-(2-Pyrimidinyl)-1-piperazinyl]butyl]-octahydro-4,7-etheno-1H-cyclobut[f]isoindole-1,3-(2H)-dione, dihydrochloride, hydrate]
Active at mg/kg (avoidance responding [1]): 40 (i.p.) mg/kg | pKi [2]: 8.96 | ED50 (avoidance responding [3]): 47.4 mg/kg | pKi [4]: 7.07

O=C1C2C3C=CC(CCC3)C2C(=O)N1CCCCN1CCN(c2ncccn2)CC1 (centres unmarked) [Example 21, 4,5,6,7,8,8a-Hexahydro-2-[4-[4-(2-pyrimidinyl)-1-piperazinyl]butyl]-4,8-ethenocyclohepta[c]pyrrole-1,3(2H,3aH)-dione, dihydrochloride, hemihydrate]
Active at mg/kg (avoidance responding [1]): 40 (i.p.) mg/kg | pKi [2, 5]: 7.92 | inhibition at 1 µM [4]: 53%

O=C1C2C3C=CC(C4C=CC43)C2C(=O)N1CCCCN1CCN(c2cnccn2)CC1 (centres unmarked) [Example 23, 3a,4,4a,6a,7,7a-Hexahydro-2-[4-[4-(2-pyrazinyl)-1-piperazinyl]butyl]-4,7-etheno-1H-cyclobut[f]isoindole-1,3-(2H)-dione, fumarate(1:1)]
Active at mg/kg (avoidance responding [1]): 40 (i.p.) mg/kg | inhibition at 1 µM [2]: 46% | inhibition at 1 µM [4]: 13%

O=C1C2C3C=CC(C4CC34)C2C(=O)N1CCCCN1CCN(c2cnccn2)CC1 (centres unmarked) [Example 24, 4,4a,5,5a,6,6a-Hexahydro-2-[4-[4-(2-pyrazinyl)-1-piperazinyl]butyl]-4,6-ethenocycleprop[f]isoindole-1,3-(2H,3aH)-dione, dihydrochloride, hydrate]
Active at mg/kg (avoidance responding [1]): 40 (i.p.) mg/kg | inhibition at 1 µM [2]: 68% | ED50 (avoidance responding [3]): 49.6 mg/kg | inhibition at 1 µM [4]: 38%

O=C1C2C3C=CC(C4CCC34)C2C(=O)N1CCCCN1CCN(c2cnccn2)CC1 (centres unmarked) [Example 27, 3a,4,4a,5,6,6a,7,7a-Octahydro-2-[4-[4-(2-pyrazinyl)-1-piperazinyl]butyl]-4,7-etheno-1H-cyclobut[f]isoindole-1,3(2H)-dione, dihydrochloride, hemihydrate]
Active at mg/kg (avoidance responding [1]): 40 (i.p.) mg/kg | pKi [2, 5]: 7.39 | inhibition at 1 µM [4]: 41%
